From patent US20020013306A1, “TERPYRIDINE-PLATINUM(II) COMPLEXES” (priority 1996, published 2002)
“And” between values parts separate entries of the source, which are not always exact repeats. Equal values may be shown once. Read-outs that look alike come from different tables or passages of the source.

Assays:
[1] = system: A2780cis^R human ovarian carcinoma cell line (cisplatin resistant); experiment: 96 h growth inhibition, sulforhodamine B assay, A2780cisR; assay type: cell-based; conditions: for IC50: 96 h exposure, growth inhibition, v = variable (mean); for RF resistance factor: IC50 resistant line/IC50 parent line: A2780cis^R / A2780
[2] = system: CH1 human ovarian carcinoma cell line; experiment: 96 h growth inhibition, sulforhodamine B assay, CH1; assay type: cell-based; conditions: 96 h exposure, v = variable (mean)
[3] = system: T. brucei (S427) bloodstream trypomastigotes; experiment: Trypanosoma brucei bloodstream trypomastigote culture; assay type: cell-based
[4] = system: SKOV3 human ovarian carcinoma cell line; experiment: 96 h growth inhibition, sulforhodamine B assay, SKOV3; assay type: cell-based; conditions: 96 h exposure, v = variable (mean)
[5] = system: A2780 human ovarian carcinoma cell line; experiment: 96 h growth inhibition, sulforhodamine B assay, A2780; assay type: cell-based; conditions: 96 h exposure, v = variable (mean)
[6] = system: CH1cis^R human ovarian carcinoma cell line (cisplatin resistant); experiment: 96 h growth inhibition, sulforhodamine B assay, CH1cisR; assay type: cell-based; conditions: for IC50: 96 h exposure, growth inhibition, v = variable (mean); for RF resistance factor: IC50 resistant line/IC50 parent line: CH1cis^R / CH1
[7] = system: T. cruzi (MHOM/BR/00/Y); experiment: Trypanosoma cruzi in mouse peritoneal macrophages; assay type: cell-based
Protocol: Trypanosoma cruzi: […] Drug activity was determined from the % of infected macrophages in treated cultures. Nifurtimox was used as the positive control.

[8] = system: CH1dox^R human ovarian carcinoma cell line (doxorubicin resistant); experiment: 96 h growth inhibition, sulforhodamine B assay, CH1doxR; assay type: cell-based; conditions: for IC50: 96 h exposure, growth inhibition; for RF resistance factor: IC50 resistant line/IC50 parent line: CH1dox^R / CH1
[9] = system: P falciparum (chloroquin resistant strain K1); experiment: In vitro antimalarial activity, chloroquine resistant K1; conditions: for % Inhibition (compound duplicates), K1 P. falciparum: duplicates (1),(2)
Protocol: Plasmodium falciparum: P falciparum (chloroquin resistant strain K1) was cultured at 37° C. in a 5% suspension of infected so erythrocytes (group A Rh^+) in complete medium as described by E L Elueze, S L Croft and D C Warhurst, J Antimicrobial Chemotherapy, 1996, 37, 511-518. The in vitro antimalarial activity of compounds were likewise determined according to their protocol. Mefloquin was used as the positive control.”

[10] = read-out: IC50 (avg), K1 P. falciparum, average of duplicates

Row | Structure (SMILES) | IC50 [1] | RF resistance factor: IC50 resistant line/IC50 parent line [1] | IC50 [2] | % Inhibition, Trypanosoma brucei ([3]; 0.1 μM) | % Inhibition, Trypanosoma brucei ([3]; 0.3 μM) | % Inhibition, Trypanosoma brucei ([3]; 1 μM) | % Inhibition, Trypanosoma brucei ([3]; 3 μM) | % Inhibition, Trypanosoma brucei ([3]; 10 μM) | % Inhibition, Trypanosoma brucei ([3]; 30 μM) | IC50 [4] | IC50 [5] | IC50 [6] | RF resistance factor: IC50 resistant line/IC50 parent line [6] | % Inhibition, Trypanosoma cruzi ([7]; 1 μM) | % Inhibition, Trypanosoma cruzi ([7]; 3 μM) | % Inhibition, Trypanosoma cruzi ([7]; 10 μM) | IC50 [8] | RF resistance factor: IC50 resistant line/IC50 parent line [8] | % Inhibition, Trypanosoma cruzi ([7]; 30 μM) | also measured
1 | F[B-](F)(F)F.F[B-](F)(F)F.c1cc[n+]2c(c1)-c1cccc3[n+]1[Pt-2]2([n+]1ccsc1)[n+]1ccccc1-3 [Compound A6] | > 100 µM | 1 | 17 µM | 75.4% | 100% | 100% | 100% | 100% | 100% | > 100 µM | 18.6 µM | 17 µM | 1 | 0% | 0% | 5.0% | 6.3 µM | 0.4 |  | 
2 | CC#[N+][Pt-2]12[n+]3ccccc3-c3cccc([n+]31)-c1cccc[n+]12.F[B-](F)(F)F.F[B-](F)(F)F [Compound A8] | 100 µM | 2 | 18 µM |  |  | 100% | 100% | 100% | 100% | > 100 µM | 50 µM | 18.5 µM | 1 | 0% | 0% | 4.0% | 13 µM | 0.7 | 38.0% | 
3 | F[B-](F)(F)F.F[B-](F)(F)F.[NH3+][Pt-2]12[n+]3ccccc3-c3cccc([n+]31)-c1cccc[n+]12 [Compound A12] | 23.5 µM | 2 | 5.2 µM | 83.8% | 98.5% | 100% | 100% | 100% | 100% | 15 µM | 11.5 µM | 4.5 µM | 0.9 | 72.3% | 100% | 100% | 3.75 µM | 0.7 | 100% | 
4 | Cc1cc[n+]([Pt-2]23[n+]4ccccc4-c4cc(Cl)cc([n+]42)-c2cccc[n+]23)cc1.F[B-](F)(F)F.F[B-](F)(F)F [I] | 14.5 µM | 1 | 6.35 µM | 99.2% | 83.8% | 100% | 100% | 100% | 100% | 5.6 µM | 14.5 µM | 6.4 µM | 1 | 59.7% | 73.5% | 97.0% | 0.425 µM | 0.07 | 100% | % Inhibition (compound duplicates), K1 P. falciparum ([9]; Concn. 15 μM): 14.2% and 9.4%; % Inhibition (compound duplicates), K1 P. falciparum ([9]; Concn. 30 μM): 93.2% and 90.9%; % Inhibition (compound duplicates), K1 P. falciparum ([9]; Concn. 75 μM): 1.9% and 2.1%; % Inhibition (compound duplicates), K1 P. falciparum ([9]; Concn. 375 μM): 0%; % Inhibition (compound duplicates), K1 P. falciparum ([9]; Concn. 1875 μM): 0%; % Inhibition (compound duplicates), K1 P. falciparum ([9]; Concn. 09375 μM): 0%; % Inhibition (compound duplicates), K1 P. falciparum ([9]; Concn. 046875 μM): 0%; % Inhibition (compound duplicates), K1 P. falciparum ([9]; Concn. 0234375 μM): 0%; IC50 [9, 10]: 20.6 µM; IC50 ([9]; read-out: IC50, K1 P. falciparum, each duplicate (1),(2)): 19.9 µM and 21.2 µM
5 | Cc1cc[n+]([Pt-2]23[n+]4ccccc4-c4cc(-c5ccc(Br)cc5)cc([n+]42)-c2cccc[n+]23)cc1.F[B-](F)(F)F.F[B-](F)(F)F [Q] | 29.5 µM | 0.8 | 5 µM | 0% | 100% | 100% | 100% | 100% | 100% | > 100 µM | 39 µM | 5.8 µM | 1.2 |  |  |  | 1.05 µM | 0.2 |  | % Inhibition (compound duplicates), K1 P. falciparum ([9]; Concn. 15 μM): 97.0%; % Inhibition (compound duplicates), K1 P. falciparum ([9]; Concn. 30 μM): 99.8%; % Inhibition (compound duplicates), K1 P. falciparum ([9]; Concn. 75 μM): 98.6%; % Inhibition (compound duplicates), K1 P. falciparum ([9]; Concn. 375 μM): 60.8%; % Inhibition (compound duplicates), K1 P. falciparum ([9]; Concn. 1875 μM): 46.1%; % Inhibition (compound duplicates), K1 P. falciparum ([9]; Concn. 09375 μM): 0%; % Inhibition (compound duplicates), K1 P. falciparum ([9]; Concn. 046875 μM): 0%; % Inhibition (compound duplicates), K1 P. falciparum ([9]; Concn. 0234375 μM): 0%; IC50 [9, 10]: 2.4 µM
6 | Cc1ccncc1.F[B-](F)(F)F.F[B-](F)(F)F.NNc1cc(-c2ccccn2)nc(-c2ccccn2)c1.[Pt+2] [R, (4-Picoline)(4′-Hydrazino-2,2′:6′,2″-Terpyridine) Platinum (II) Tetrafluoroborate] | 89 µM | 2.3 | 16 µM | 4.9% | 29.6% | 100% | 100% | 100% | 100% | 80 µM | 39 µM | 13.5 µM | 0.8 | 60.8% | 57.7% | 65.8% | 5.3 µM | 0.3 | 60.1% | 
7 | CN(N)c1cc(-c2ccccn2)nc(-c2ccccn2)c1.Cc1ccncc1.F[B-](F)(F)F.F[B-](F)(F)F.[Pt+2] [S, (4-Picoline)(4′-(1 -Methylhydrazino)-2,2′:6′,2″-Terpyridine) Platinum (II) Tetra-fluoroborate] | 62 µM | 3.4 | 65 µM | 0% | 22.5% | 44.4% | 98.3% | 100% | 100% | > 100 µM | 18 µM | > 100 µM |  | 60.9% | 53.3% | 53.3% | 14.5 µM | 0.2 | 334% | 
8 | Cc1ccncc1.Cc1ccncc1.F[B-](F)(F)F.F[B-](F)(F)F.F[B-](F)(F)F.F[B-](F)(F)F.O=C(CCCCC(=O)NNc1cc(-c2ccccn2)nc(-c2ccccn2)c1)NNc1cc(-c2ccccn2)nc(-c2ccccn2)c1.[Pt+2].[Pt+2] [V, Adipoyl-Linked-Bis[4-Picoline(4′-Hydrazino-2,2′:6′,2″-Terpyridine) Platinum(II)] Tetrafluoroborate] | 40 µM | 2.1 | 48 µM | 0% | 0% | 0% | 100% | 100% | 100% | 98 µM | 19 µM | 42 µM | 0.9 | 0% | 0% | 0% | 40 µM | 0.8 | 0% | 
9 | CN(NC(=O)CCCCC(=O)NN(C)c1cc(-c2ccccn2)nc(-c2ccccn2)c1)c1cc(-c2ccccn2)nc(-c2ccccn2)c1.Cc1ccncc1.Cc1ccncc1.F[B-](F)(F)F.F[B-](F)(F)F.F[B-](F)(F)F.F[B-](F)(F)F.[Pt+2].[Pt+2] [W, Adipoyl-Linked-Bis[4-Picoline(4′-(1 -Methylhydrazino)-2,2′:6′,2″-Terpyridine) Platinum(II)] Tetrafluoroborate] | 10.5 µM | 0.6 | 48 µM | 0% | 0% | 0% | 0% | 59.8% | 100% | > 100 µM | 17 µM | 46 µM | 0.9 | 0% | 0% | 0% | 58 µM | 1.2 | 8.3% | 
